{"source": "paper PMC3878761", "about": "“Interactions of peptide triazole thiols with Env gp120 induce irreversible breakdown and inactivation of HIV-1 virions” (Retrovirology, 2013)", "key": {"[1]": {"test_system": "gp41 of HIV-1 BaL pseudovirus (4E10 epitope)", "assay": "exposure of gp41 MPER epitope, 4E10 ELISA", "conditions": "fixed BaL pseudovirions, 30 min at 37°C (dose) or 1 μM (time), n = 3", "protocol": "(§1) We also measured the presence of gp41 epitopes for human mAb’s 2 F5 and 4E10 using an altered ELISA detection method to minimize virus particle disruption. […] Virus fractions were collected and fixed with equal volume of 0.1% paraformaldehyde for 30 minutes at 4°C. The treated virus fractions were spun at 16,000 X g for 2 hours at 4°C in an Eppendorf table top centrifuge. Following PBS wash, fixed virions were coated on an ELISA plate at 50 μl per well and incubated overnight at 4°C. The plate was blocked with 3% BSA, and ELISA was used to detect gp41 epitopes with human gp41 antibodies 2 F5 and 4E10 followed by addition of anti-human IgG HRP secondary antibody."}, "HIV-1 BaL pseudovirus [2]": {"test_system": "HIV-1 BaL pseudovirus", "assay": "gp120 shedding from HIV-1 BaL pseudovirus (western blot)"}, "[3]": {"test_system": "CHO-K1 cells expressing gp160", "assay": "gp120 shedding and lysis, CHO-K1 cells expressing gp160", "type": "cell-based", "conditions": "unpublished results, manuscript in preparation"}, "[4]": {"test_system": "pseudotype virions bearing the HIV-1 BaL envelope glycoprotein", "conditions": "determined by release of the p24 capsid protein; cited from earlier work", "excerpt": "Since gp120 is the first viral protein to interact with the host cell, it is an attractive target for inhibiting infection. […] This inhibition is mediated by binding to a region of gp120 that partially overlaps the CD4 binding site."}, "[5]": {"test_system": "R5-tropic and X4-tropic HIV-1", "design": "method as in 2 sources, one per row (each row's own in cited_ref): ref 7-9, 12 = [7]; PMID 20518583; doi:10.2165/11203940-000000000-00000; Perry CM Maraviroc: a review of its use in the management of CCR5-tropic HIV-1 infection Drugs 2010 10 9 1189 1213 10.2165/11203940-000000000-00000 20518583 || [8]; PMID 23541872; doi:10.1016/j.antiviral.2013.03.017; Haqqani AA Tilton JC Entry inhibitors and their use in the treatment of HIV-1 infection Antiviral Res 2013 10 2 158 170 10.1016/j.antiviral.2013.03.017 23541872 || [9]; PMID 23290628; doi:10.1016/j.coviro.2012.12.002; Henrich TJ Kuritzkes DR HIV-1 entry inhibitors: recent development and clinical use Curr Opin Virol 2013 10 1 51 57 10.1016/j.coviro.2012.12.002 23290628 PMC4213740 || [12]; PMID 17933722; Emmelkamp JM Rockstroh JK CCR5 antagonists: comparison of efficacy, side effects, pharmacokinetics and interactions–review of the literature Eur J Med Res 2007 10 9 409 417 17933722 ||| ref 34 = [34]; PMID 23470147; doi:10.1021/bi400166b; Emileh A Tuzer F Yeh H Umashankara M Moreira DR Lalonde JM Bewley CA Abrams CF Chaiken IM A model of peptide triazole entry inhibitor binding to HIV-1 gp120 and the mechanism of bridging sheet disrupt", "conditions": "cited from earlier work"}, "[6]": {"test_system": "gp41 of HIV-1 BaL pseudovirus (98–6 epitope)", "assay": "gp41 content of treated virions, mAb 98-6 western blot", "conditions": "western blot mAb 98–6, BaL pseudovirus"}, "HIV-1 BaL pseudovirus [7]": {"test_system": "HIV-1 BaL pseudovirus", "assay": "p24 release from HIV-1 BaL pseudovirus (ELISA)"}, "HIV-1 YU2 gp120": {"molecular_target": "T1, HIV-1 YU2 gp120 (Human immunodeficiency virus type 1 group M subtype B, UniProt P35961)", "T1 construct": "made in house; host or cells: 293F cells", "assay": "SPR direct binding to immobilized YU2 gp120", "conditions": "immobilized YU2 gp120, PBS + 0.005% Tween 20, pH 7.2, 25°C", "protocol": "(Additional file 1: Figure S2). […] Direct binding of the peptide triazole to sensor chip immobilized HIV-1 YU2 gp120 was measured as previously described using Surface Plasmon Resonance (SPR) with a Biacore 3000 optical biosensor (GE Healthcare). […] The cell viability was measured using the tetrazolium salt premix reagent, WST-1 from Takara Bio Inc. following the manufacturer’s protocol. The formazan product was measured using the microplate reader at absorbance wavelength 460 nm (Molecular Devices)."}, "HIV-1 BaL pseudovirus [8]": {"test_system": "HIV-1 BaL pseudovirus", "assay": "TEM morphology of treated virions", "conditions": "KR13 1 μM, 24 hours"}, "[9]": {"test_system": "fully infectious HIV-1 BaL virions", "assay": "gp120 shedding from fully infectious HIV-1 BaL", "conditions": "read-out: gp120 shedding IC50 (*, fully infectious), 30 min at 37°C, western blot, ± SD", "quoted_text": "(§2) The replication competent virions were assayed for peptide triazole-induced inhibition of infection, gp120 shedding and p24 release in a BSL-2 facility. Gradient purification of the viruses and p24 release assays were performed as with pseudoviruses (described in Materials and Methods above). Cell infection by virus and its inhibition by peptide triazoles were tested using a modified version of a previously reported p24 ELISA assay [60]. The p24 release assays as well as detection of gp120 shedding were conducted as with the BaL pseudovirions (described in Materials and Methods above).\n(§3) Virions were purified using 6-20% iodixanol gradient and p24 content measured using ELISA. […] HOS CD4^+ve CCR5^+ve cells seeded, at 8,000 cells per well in a 96 well plate, were incubated for 24 hours followed by addition of pre-incubated inhibitor-virus mixture. […] Further, the peptide triazole and cell-free virus were pre-incubated for 30 min at 37°C followed by spinning for 2 hours at 13,600 rpm in a table top centrifuge (Eppendorf) at 4°C. Supernatant was separated and p24 content determined using the p24 capture ELISA (explained in the main Materials and Methods section) and gp120 using western blot analysis (explained in the Supplementary Text above)."}, "HIV-1 BaL pseudovirus [10]": {"test_system": "HIV-1 BaL pseudovirus"}, "[11]": {"test_system": "fully infectious HIV-1 BaL virions", "conditions": "read-out: p24 release IC50 (*, fully infectious), 30 min at 37°C, p24 capture ELISA, ± SD", "quoted_text": "as §2, §3"}, "[12]": {"test_system": "gp41 of HIV-1 BaL pseudovirus (2 F5 epitope)", "assay": "exposure of gp41 MPER epitope, 2 F5 ELISA", "conditions": "fixed BaL pseudovirions, 30 min at 37°C (dose) or 1 μM (time), n = 3", "protocol": "as §1"}, "[13]": {"conditions": "KR13 (1 μM), 30 minutes exposure, n = 3"}, "[14]": {"conditions": "KR13 1 μM or HNG156 100 μM, 1 min to 24 hours, 37°C"}}, "note": "Entries after “also recorded” stand apart in the source; their conditions may differ. Where two headings read alike, the source gives them in different places."}
{"smiles": "CC[C@H](C)[C@H](NC(=O)[C@@H](N)CCCNC(=N)N)C(=O)N[C@@H](CC(N)=O)C(=O)N[C@@H](CC(N)=O)C(=O)N[C@H](C(=O)N1C[C@@H](n2cc([C]34[CH]5[CH]6[CH]7[CH]3[Fe]6754389%10[CH]4[CH]3[CH]8[CH]9[CH]4%10)nn2)C[C@H]1C(=O)N[C@@H](Cc1c[nH]c2ccccc12)C(=O)N[C@@H](CO)C(=O)N[C@@H](CCC(=O)O)C(=O)N[C@@H](C)C(=O)N[C@@H](CCSC)C(=O)N[C@@H](CCSC)C(=O)NCCC(=O)N[C@@H](CCC(N)=O)C(=O)NCCC(=O)N[C@@H](CS)C(N)=O)[C@@H](C)CC", "note": "(stereo partly drawn) [KR13]", "values": [{"measurement": "reactivity to 4E10", "setting": "[1]", "value": "reactivity to 4E10 and 2 F5 increased in a dose-dependent manner; also recorded: time dependent exposure of the MPER epitope"}, {"measurement": "gp120 shedding, in words", "setting": "HIV-1 BaL pseudovirus [2]", "value": "caused gp120 shedding"}, {"measurement": "loss of gp120", "setting": "HIV-1 BaL pseudovirus [2]; [13]", "value": "65-70%"}, {"measurement": "gp120 shedding, CHO-K1 cells expressing gp160", "setting": "[3]", "value": "caused gp120 shedding"}, {"measurement": "lysis of CHO-K1 cells expressing gp160", "setting": "[3]", "value": "did not lyse the cells"}, {"measurement": "lysis of BaL pseudotype virions", "setting": "[4]", "value": "induced lysis of pseudotype virions bearing the HIV-1 BaL envelope glycoprotein"}, {"measurement": "inhibition of R5- and X4-tropic viruses", "setting": "[5]", "value": "potent inhibitor of R5- and X4-tropic viruses"}, {"measurement": "gp41 retention / 98–6 detection", "setting": "[6]", "value": "gp41 remained associated with virions; also recorded: gp41 was detected only weakly by 98–6 in either soluble or virion-associated fractions"}, {"measurement": "kinetics of p24 release", "setting": "HIV-1 BaL pseudovirus [7]; [14]", "value": "delayed kinetically"}, {"measurement": "loss of p24", "setting": "HIV-1 BaL pseudovirus [7]; [13]", "value": 10, "unit": "%"}, {"measurement": "reduction in virion p24 content", "setting": "HIV-1 BaL pseudovirus [7]; KR13 (1 μM), 360 minutes", "value": 50, "unit": "%"}, {"measurement": "IC50", "setting": "HIV-1 BaL pseudovirus [7]; read-out: p24 release IC50, 30 minutes, gradient fractionation, capture ELISA, 1% triton X = 100%, ± SD, n > 3", "value": "32 ± 10", "unit": "nM"}, {"measurement": "SPR direct binding to gp120, in words", "setting": "HIV-1 YU2 gp120", "value": "proportionally increasing binding responses to immobilized gp120 at increasing concentrations of KR13"}, {"measurement": "core morphology of virions", "setting": "HIV-1 BaL pseudovirus [8]", "value": "substantially different, with a shriveled and disordered appearance"}, {"measurement": "reduction of virion diameter", "setting": "HIV-1 BaL pseudovirus [8]; 37°C, n = 16", "value": "> 50", "unit": "%"}, {"measurement": "IC50", "setting": "[9]", "value": 1200, "unit": "nM"}, {"measurement": "kinetics of infectivity inhibition versus gp120 shedding", "setting": "HIV-1 BaL pseudovirus [10]; [14]", "value": "infectivity inhibition and gp120 shedding had similar kinetics"}, {"measurement": "loss of infectivity", "setting": "HIV-1 BaL pseudovirus [10]; [13]", "value": "65-70%"}, {"measurement": "inhibition of infection, in words", "setting": "HIV-1 BaL pseudovirus [10]; single round infection assay", "value": "inhibited infection"}, {"measurement": "IC50", "setting": "[11]", "value": 4400, "unit": "nM"}, {"measurement": "reactivity to 2 F5", "setting": "[12]", "value": "reactivity to 4E10 and 2 F5 increased in a dose-dependent manner; also recorded: time dependent exposure of the MPER epitope"}]}
